Assay: Acid dissociation constant of the compound.
Type: ADME

Row | pKa | Compound
1 | 4.8 | O=C(O)CSc1c(F)c(F)c(C(=O)O)c(-c2c3cc(F)c(=O)cc-3oc3cc(O)c(F)cc23)c1F
2 | 6.4 | O=C(O)c1ccc(C(=O)O)c(-c2c3ccc(=O)cc-3oc3cc(O)ccc23)c1 [6-Carboxyfluorescein]

Source: ChEMBL document CHEMBL1131851, “Synthesis and fluorescence properties of Oregon Green 514 labeled peptides” (Bioorg Med Chem Lett, 1999)
